Results published in patent US5681863A, “Non-metabolizable clomiphene analogs for treatment of tamoxifen-resistant tumors” (Merrell Pharmaceuticals Inc., priority 1994, dated 1997).
Counter-ions that a name gives are not always drawn.

Columns and labels:
MCF-7 = test: Antiproliferation test, MCF-7 human breast cancer cells (tamoxifen-sensitive); assay type: cell-based; details: for IC50: Homo sapiens, MCF7, 168 h, read-out: TRIPHENYLETHYLENE IC50's AGAINST BREAST CANCER CELLS, IC50, Cell line MCF-7; for IC50 compared with tamoxifen, in words (both cell lines: MCF-7): statement in words
Procedure: (§1) Antiproliferation test Procedure:
(§2) The tests were conducted in 96-well microtiter plates. 5×10^3 cells were added to each well. Culture medium and drug solutions were added to wells with a Perkin Elmer Cetus PRO/PETTE. The culture medium was IMEM supplemented with 5% fetal bovine serum. Eight drug concentrations were tested, in duplicate, from 0.078 micromolar (μM) to 10 μM. After four days incubation the medium was replaced with fresh medium containing drug, and after a total of seven days, the cell monolayers were fixed with trichloracetic acid and stained with sulforhodamine dye. Absorbances (492 nm) of the extracted dye solutions were measured with a Titertek Multiscan plate reader.

LY2 = test: Antiproliferation test, LY-2 human breast cancer cells (MCF-7 variant resistant to tamoxifen); assay type: cell-based; details: for IC50: Homo sapiens, MCF7, 168 h, read-out: TRIPHENYLETHYLENE IC50's AGAINST BREAST CANCER CELLS, IC50, Cell line LY2; for IC50 compared with tamoxifen, in words (both cell lines: LY-2): statement in words
Procedure: as §1, §2

Row | SMILES | IC50 (MCF-7) [nM] | IC50 compared with tamoxifen, in words (both cell lines: MCF-7) (MCF-7) | IC50 (LY2) [nM] | IC50 compared with tamoxifen, in words (both cell lines: LY-2) (LY2)
1 | CCN(CC)CCCc1ccc(C(=C(Cl)c2ccccc2)c2ccccc2)cc1 [MDL 6866F, 1-[p-γ-diethylaminopropyl)phenyl]-1,2-diphenylchloroethylene dihydrogen citrate] | 320 | lower than the IC50 values of tamoxifen | 1600 | lower than the IC50 values of tamoxifen
2 | CCN(CC)CCSc1ccc(C(=C(Cl)c2ccccc2)c2ccccc2)cc1 [MDL 10007F, 2-[p-(2-Chloro-1,2-diphenylvinyl)-phenylthio]triethylamine Dihydrogen Citrate] | 370 | lower than the IC50 values of tamoxifen | 1000 | lower than the IC50 values of tamoxifen
3 | CCN(CC)CCNc1ccc(C(=C(Cl)c2ccccc2)c2ccccc2)cc1 [MDL 10222F, 2-[p-(2-Chloro-1,2-diphenylvinyl)-anilino]triethylamine Dihydrogen Citrate] | 700 | lower than the IC50 values of tamoxifen | 3800 | lower than the IC50 values of tamoxifen
